# Key:
# [1] = test system: thrombocyte aggregation in platelet-rich plasma; assay: Determination of effect on platelet aggregation by the method of Born and Cross (collagen-induced thrombocyte aggregation); format: cell-based; conditions: 10 min, platelet-rich plasma of healthy human donors, 10 min incubation at 37° C., read-out: ED50 (dose leading to a 50% inhibition of aggregation compared with the control group)
# Protocol: 1. Determination of effect on platelet aggregation by the method of Born and Cross, J. Physiol. 170, 397 (1964):
# The thrombocyte aggregation was measured in the platelet-rich plasma of healthy human donors. The course of change of the optical density of the platelet suspension was measured and recorded photometrically after the addition of commercial collagen containing 1 mg of collagen fibrils per ml. From the angle of inclination of the density curve, the rate of aggregation was estimated (Vmax). The optical density (O.D.) was taken as the point on the curve where the most light was transmitted.
# As small doses of collagen as possible were chosen, but sufficient to give irreversible aggregation. To provoke maximum aggregation, about 0.01 ml of the collagen solution was added to 1 ml of platelet-rich plasma.
# The test compounds were incubated at 37° C. for 10 minutes with the plasma before aggregation was provoked. The compounds were dissolved with a small quantity of hydrochloric acid or dimethyl formamide, and the solution was diluted to the desired final concentration with distilled water.
# The dose leading to a 50% inhibition of aggregation compared with the control group (E D50) was determined.
# [2] = Acute toxicity in white mice after oral application of a single dose; format: in vivo; conditions: mouse, in vivo, observation time 14 days
# Protocol: (§1) The acute toxicity of the compounds was determined in white mice (observation time: 14 days) after oral application of a single dose: […]
# white mice = assay: as above; format: in vivo; conditions: observation time 14 days, at the dose given in the same line
# Protocol: as §1
SMILES,IC50 [1],LD50 at 336 h [2],animals died (mortality in acute toxicity test) (white mice)
"Nc1n[nH]c2nc(N3CCCCCC3)cc(-c3ccc(F)cc3)c12 [H, 3-Amino-4-(4'-fluoro-phenyl)-6-hexamethyleneimino-1H-pyrazolo[3,4-b]pyridine]",300 nM,,
"Nc1n[nH]c2nc(N3CCCCC3)cc(-c3ccccc3)c12 [C, 3-Amino-4-phenyl-6-piperidino-1H-pyrazolo[3,4-b]pyridine]",400 nM,> 250 mg/kg,0 out of 10
"CC1CCCN(c2cc(-c3ccccc3)c3c(N)n[nH]c3n2)C1 (stereo not shown) [D, 3-Amino-6-(3-methyl-piperidino)-4-phenyl-1H-pyrazolo[3,4-b]pyridine]",300 nM,> 250 mg/kg,0 out of 10
"CCN(CC)c1cc(-c2ccccc2)c2c(N)n[nH]c2n1 [F, 3-Amino-6-diethylamino-4-phenyl-1H-pyrazolo[3,4-b]pyridine]",300 nM,> 1500 mg/kg,0 out of 10
"Nc1cc(-c2ccccc2)c2c(N)n[nH]c2n1 [I, 3,6-Diamino-4-phenyl-1H-pyrazolo[3,4-b]pyridine, reference compound]",100000 nM,> 1500 mg/kg,0 out of 10
"Nc1n[nH]c2nc(N3CCSCC3)cc(-c3ccccc3)c12 [B, 3-Amino-4-phenyl-6-thiomorpholino-1H-pyrazolo[3,4-b]pyridine]",40 nM,> 250 mg/kg,0 out of 10
"Nc1n[nH]c2nc(N3CCOCC3)cc(-c3ccccc3)c12 [A, 3-Amino-6-morpholino-4-phenyl-1H-pyrazolo[3,4-b]pyridine]",1000 nM,> 250 mg/kg,0 out of 10
"Nc1n[nH]c2nc(N3CCCCCC3)cc(-c3ccccc3)c12 [Compound E, 3-Amino-6-hexamethyleneimino-4-phenyl-1H-pyrazolo[3,4-b]pyridine]",40 nM,> 5000 mg/kg,3 out of 10
"COc1ccc(-c2cc(N3CCCCC3)nc3[nH]nc(N)c23)cc1 [G, 3-Amino-4-(4'-methoxy-phenyl)-6-piperidino-1H-pyrazolo [3,4-b]pyridine]",1000 nM,> 1500 mg/kg,0 out of 10
